Patent US4871527A, “No-carrier-added [^18 F]-N-fluoroalkylspiroperidols” (The United States of America as represented by the United …, priority 1987, dated 1989)
Entries after “also recorded” stand apart in the source; their conditions may differ. Where two headings read alike, the source gives them in different places.

Experiments:
[1] = test system: dopamine receptors; test: Uptake in the brain and radiation burden (general statement); details: in vivo
[2] = test system: dopamine receptors; test: PET baboon studies: brain kinetics in striatum and cerebellum
From the text: A young adult (11 kg) female baboon (Papio anubis) was anesthetized initially with ketamine and subsequently maintained under halothane/nitrous oxide anesthesia for two PETT studies as described in the Arnett et al. paper referenced in Example 7. […] PET scans were made continually for 4 hr from the time of radioisotope injection. Regions of interest corresponding to the striata and cerebellum were selected.

[3] = Metabolic stability of N-(3-[^18 F]fluoropropyl)spiroperidol in mouse brains; assay type: in vivo, female albino mice (BNL strain); details: for Percent Recovery of Total ^18 F Applied to C-18 Sep-Pak, H2O Eluate / Percent Recovery of Total ^18 F Applied to C-18 Sep-Pak, MeOH Eluate / Percent Recovery of Total ^18 F Applied to C-18 Sep-Pak, NaOH Eluate / Percent of ^18 F in MeOH as N-(3-[^18 F]fluoropropyl)spiroperidol / remaining at 1 h: 1 hr; for remaining at 1 h: mouse, brain, iv, read-out: Percent of Unchanged N-(3-[^18 F]fluoropropyl)spiroperidol
Experimental: Metabolic Stability of N-(3-[^18 F]fluoropropyl)spiroperidol in Mouse Brains
Three female albino mice (BNL strain), 27-30 g, were injected in a lateral tail vein with […] of N-(3-[^18 F]fluoropropyl)spiroperidol in 100 μl of isotonic saline solution. At 1 hr after injection, the mice were killed by cervical dislocation. The brain was rapidly removed, homogenized either in a mixture of 2 ml of CH3 OH and 4 ml of 0.4M HClO4, or in 2 ml of CH3 OH alone. The samples were centrifuged,and the CH3 OH fractions (or the entire supernants in the case of CH3 OH alone) were analyzed for unchanged N-(3-[^18 F]fluoropropyl)spiroperidol [Arnett et al., Life Sci., 36, 1359-1366 (1985)] and analyzed by HPLC (C18 column, 4.5×250 mm, CH3 OH:0.2N NH4 CO2 H (90:10), 1.5 ml/min).
^a The precipitates were separated without further washings.
^b The precipitates were separated and washed with MeOH--HClO4

[4] = test system: dopamine receptors; test: Affinity for dopamine receptors; assay type: binding
[5] = Baboon plasma analyses: blood kinetics and metabolism; assay type: in vivo, baboon (Papio anubis)
Experimental: Baboon Plasma Analyses: Blood was sampled from the femoral artery at initial intervals of 5 sec. Aliquots of plasma were counted to determine the total plasma radioactivity clearance curve. Representative samples (Table 6) were also analyzed for unchanged N-(3-[^18 F]fluoropropyl)spiroperidol.
The baboon blood total plasma radioactivity clearance curve following injection of NCA N-(3-[^18 F]fluoropropyl)spiroperidol is depicted in FIG. 1. The blood clearance was very rapid. The appearance of metabolites in the blood was also rapid (Table 6). At 10 min after injection 68% of plasma radioactivity was due to unchanged N-(3-[^18 F]fluoropropyl)spiroperidol.
*Plasma samples were extracted with MeOH--0.4M HClO4

[6] = Tissue distribution of NCA N-(3-[^18 F]fluoropropyl)spiroperidol in mice after butaclamol pretreatment; assay type: in vivo, female albino mice (BNL strain)
Experimental: Tissue Distribution of NCA N-(3-[^ 18 F]fluoropropyl)spiroperidol in Mice
Female albino mice (BNL strain), 22-27 g, were injected in a lateral tail vein with 24-85 μCi of N-(3-[^18 F]fluoropropyl)spiroperidol in 100 μl of isotonic saline solution.
Mice were pretreated with 2 mg/kg, i.v., of either (-)butaclamol (-), or
(+)butaclamol (+). The mice were killed by cervical dislocation and
decapitation at 5, 60 and 120 min after injection. The dissected tissues
were blotted to remove adhering blood and placed in tared counting vials.
A sample of blood was obtained from the trunk immediately after
decapitation. The entire tail was counted to verify the patency of the
tail vein injection. All samples were counted and weighed, and the
activity expressed as percent of injected dose per organ or percent of
injected dose per gram of tissue.

[7] = baboon, (-)-butaclamol pretreatment
[8] = mouse brain, 2X MeOH-HClO4 (washed again)
[9] = mouse brain, MeOH-HClO4 extraction, no further washings
[10] = baboon plasma, 0.67 min after injection
[11] = baboon plasma, 4.0 min after injection
[12] = baboon plasma, 10 min after injection
[13] = baboon plasma, 30 min after injection
[14] = baboon plasma, 120 min after injection
[15] = (+)-butaclamol pretreatment, 5 min
[16] = (+)-butaclamol pretreatment, 60 min
[17] = (+)-butaclamol pretreatment, 120 min
[18] = (-)-butaclamol pretreatment, 5 min
[19] = (-)-butaclamol pretreatment, 60 min
[20] = (-)-butaclamol pretreatment, 120 min

Compound: O=C(CCCN1CCC2(CC1)C(=O)N(CCC[18F])CN2c1ccccc1)c1ccc(F)cc1 [N-(3-[^18 F]fluoropropyl)spiroperidol]
- Radiation burden [1]: reduced radiation burden
- Uptake and retention in the brain [1]: enhanced uptake and retention in the brain
- Striatal accumulation of radioactivity, blocking by (+)-butaclamol ([2]; (+)-butaclamol pretreatment, species not given): blocked stereoselectively by (+)-butaclamol
- Radioactivity in the cerebellum after first few minutes [2, 7]: declined rapidly in the cerebellum
- Radioactivity in the striatum after first few minutes [2, 7]: increasing for up to 4 hrs in the striatum
- Influx into striatum and cerebellum ([2]; baboon, (-)-butaclamol pretreatment, first few minutes): nearly equal for the first few minutes
- Percent Recovery of Total ^18 F Applied to C-18 Sep-Pak, H2O Eluate [3, 8]: 11%
- Percent Recovery of Total ^18 F Applied to C-18 Sep-Pak, MeOH Eluate [3, 8]: 81%
- Percent Recovery of Total ^18 F Applied to C-18 Sep-Pak, NaOH Eluate [3, 8]: 3.1%
- Percent of ^18 F in MeOH as N-(3-[^18 F]fluoropropyl)spiroperidol [3, 8]: 94%
- Percent Recovery of Total ^18 F Applied to C-18 Sep-Pak, MeOH Eluate ([3]; mouse brain, MeOH Alone): 65%
- Percent of ^18 F in MeOH as N-(3-[^18 F]fluoropropyl)spiroperidol ([3]; mouse brain, MeOH Alone): 97%
- Percent Recovery of Total ^18 F Applied to C-18 Sep-Pak, H2O Eluate [3, 9]: 4.2%
- Percent Recovery of Total ^18 F Applied to C-18 Sep-Pak, MeOH Eluate [3, 9]: 73%
- Percent Recovery of Total ^18 F Applied to C-18 Sep-Pak, NaOH Eluate [3, 9]: 1.3%
- Percent of ^18 F in MeOH as N-(3-[^18 F]fluoropropyl)spiroperidol [3, 9]: 94%
- Stability to metabolic transformation in the central nervous system ([3]; mouse brain, one hour): very stable to metabolic transformation in the central nervous system
- remaining at 1 h ([3]; 2X MeOH-HClO4 (washed again)): 76%
- remaining at 1 h ([3]; MeOH Alone): 62%
- remaining at 1 h ([3]; MeOH-HClO4 extraction, no further washings): 69%
- Affinity for dopamine receptors [4]: extremely high affinity for dopamine receptors
- Blood / total plasma radioactivity clearance ([5]; baboon): very rapid; also recorded: rapid
- Total recovery of ^18 F applied to C-18 Sep-pak ([5]; baboon plasma samples): 90-103%
- % Recovery of Total ^18 F Applied to C-18 Sep-Pak, H2O Eluate [5, 10]: 8%
- % Recovery of Total ^18 F Applied to C-18 Sep-Pak, MeOH Eluate [5, 10]: 93%
- % Recovery of Total ^18 F Applied to C-18 Sep-Pak, NaOH Eluate [5, 10]: 2%
- % of ^18 F in MeOH as N-(3-[^18 F]fluoropropyl)spiroperidol [5, 10]: 98%
- % Recovery of Total ^18 F Applied to C-18 Sep-Pak, H2O Eluate [5, 11]: 10%
- % Recovery of Total ^18 F Applied to C-18 Sep-Pak, MeOH Eluate [5, 11]: 83%
- % Recovery of Total ^18 F Applied to C-18 Sep-Pak, NaOH Eluate [5, 11]: 4%
- % of ^18 F in MeOH as N-(3-[^18 F]fluoropropyl)spiroperidol [5, 11]: 99%
- % Recovery of Total ^18 F Applied to C-18 Sep-Pak, H2O Eluate [5, 12]: 17%
- % Recovery of Total ^18 F Applied to C-18 Sep-Pak, MeOH Eluate [5, 12]: 71%
- % Recovery of Total ^18 F Applied to C-18 Sep-Pak, NaOH Eluate [5, 12]: 6%
- % of ^18 F in MeOH as N-(3-[^18 F]fluoropropyl)spiroperidol [5, 12]: 96%
- % Recovery of Total ^18 F Applied to C-18 Sep-Pak, H2O Eluate [5, 13]: 31%
- % Recovery of Total ^18 F Applied to C-18 Sep-Pak, MeOH Eluate [5, 13]: 45%
- % Recovery of Total ^18 F Applied to C-18 Sep-Pak, NaOH Eluate [5, 13]: 14%
- % of ^18 F in MeOH as N-(3-[^18 F]fluoropropyl)spiroperidol [5, 13]: 90%
- % Recovery of Total ^18 F Applied to C-18 Sep-Pak, H2O Eluate [5, 14]: 49%
- % Recovery of Total ^18 F Applied to C-18 Sep-Pak, MeOH Eluate [5, 14]: 30%
- % Recovery of Total ^18 F Applied to C-18 Sep-Pak, NaOH Eluate [5, 14]: 18%
- % of ^18 F in MeOH as N-(3-[^18 F]fluoropropyl)spiroperidol [5, 14]: 74%
- Appearance of metabolites in the blood ([5]; in vivo): rapid
- remaining at 40 s ([5]; in vivo, iv, baboon plasma, 0.67 min after injection, read-out: % of Unchanged N-(3-[^18 F]fluoropropyl)spiroperidol): 91%
- remaining at 4 min ([5]; in vivo, iv, baboon plasma, 4.0 min after injection, read-out: % of Unchanged N-(3-[^18 F]fluoropropyl)spiroperidol): 82%
- remaining at 10 min ([5]; in vivo, iv, baboon plasma, 10 min after injection, read-out: % of Unchanged N-(3-[^18 F]fluoropropyl)spiroperidol): 68%
- remaining at 0.5 h ([5]; in vivo, iv, baboon plasma, 30 min after injection, read-out: % of Unchanged N-(3-[^18 F]fluoropropyl)spiroperidol): 41%
- remaining at 2 h ([5]; in vivo, iv, baboon plasma, 120 min after injection, read-out: % of Unchanged N-(3-[^18 F]fluoropropyl)spiroperidol): 22%
- Cerebellum, % injected dose [6, 15]: 0.11 (0.08-0.14) %/organ
- Striatum, % injected dose [6, 15]: 0.051 %/organ
- Whole Brain, % injected dose [6, 15]: 0.79 (0.57-1.00) %/organ
- Cerebellum, % injected dose [6, 16]: 0.019 (0.013-0.025) %/organ
- Striatum, % injected dose [6, 16]: 0.013 (0.009-0.018) %/organ
- Whole Brain, % injected dose [6, 16]: 0.16 %/organ
- Cerebellum, % injected dose [6, 17]: 0.012 %/organ
- Striatum, % injected dose [6, 17]: 0.010 %/organ
- Whole Brain, % injected dose [6, 17]: 0.097 %/organ
- Cerebellum, % injected dose [6, 18]: 0.24 (0.13-0.45) %/organ
- Striatum, % injected dose [6, 18]: 0.084 (0.068-0.099) %/organ
- Whole Brain, % injected dose [6, 18]: 1.1 (0.9-1.4) %/organ
- Cerebellum, % injected dose [6, 19]: 0.040 (0.032-0.048) %/organ
- Striatum, % injected dose [6, 19]: 0.089 %/organ
- Whole Brain, % injected dose [6, 19]: 0.67 (0.59-0.77) %/organ
- Cerebellum, % injected dose [6, 20]: 0.028 (0.023-0.032) %/organ
- Striatum, % injected dose [6, 20]: 0.14 (0.11-0.17) %/organ
- Whole Brain, % injected dose [6, 20]: 0.56 (0.44-0.63) %/organ
